Laboratory results: patent US20070117770A1, “Human ribosomal DNA (rDNA) and ribosomal RNA (rRNA) nucleic acids and uses thereof” (Cylene Pharmaceuticals, Inc., priority 2005, published 2007)

Legend:
Test in all cases: Protein kinase inhibition assay
Assay type in all cases: biochemical
ALK4(h) = ALK4(h) (Homo sapiens, UniProt P36896); conditions: read-out: percent residual activity of ALK4(h)
Method: (§1) Certain compounds were tested for activity in protein kinase inhibition assays. All substrates were dissolved and diluted to working stocks in de-ionized water, apart from histone H1 (10× working stock in 20 mM MOPS pH 7.0), PDKtide (10× working stock in 50 mM Tris pH 7.0) ATF2 (which is typically stored at a 20× working stock in 50 mM Tris pH 7.5, 150 mM NaCl, 0.1 mM EGTA, 0.03% Brij-35, 50% glycerol, 1 mM benzamidine, 0.2 mM PMSF and 0.1% R-mercaptoethanol), KKLNRTLSFAEPG (SEQ ID NO:203) and RRRLSFAEPG (SEQ ID NO:204) (50 mM HEPES pH 7.4) and GGEEEEYFELVKKKK (SEQ ID NO:205) (20 mM MOPS pH 7.0). All kinases were pre-diluted to a 10× working concentration prior to addition into the assay. The composition of the dilution buffer for each kinase is detailed below.
(§2) In a final reaction volume of 25 μl, ALK4 (h) (5-10 mU) is incubated with 8 mM MOPS pH 7.0, 0.2 mM EDTA, 2 mg/ml casein, 10 mM MgAcetate and [gamma-33P-ATP] (specific activity approx. 500 cpm/pmol, concentration as required). The reaction is initiated by the addition of the MgATP mix. After incubation for 40 minutes at room temperature, the reaction is stopped by the addition of 5 μl of a 3% phosphoric acid solution. 10 μl of the reaction is then spotted onto a P30 filtermat and washed three times for 5 minutes in 75 mM phosphoric acid and once in methanol prior to drying and scintillation counting.

JNK3(h) = JNK3(h) (Homo sapiens, UniProt P53779); conditions: read-out: percent residual activity of JNK3(h)
Sequence of JNK3(h) (P53779 whole entry): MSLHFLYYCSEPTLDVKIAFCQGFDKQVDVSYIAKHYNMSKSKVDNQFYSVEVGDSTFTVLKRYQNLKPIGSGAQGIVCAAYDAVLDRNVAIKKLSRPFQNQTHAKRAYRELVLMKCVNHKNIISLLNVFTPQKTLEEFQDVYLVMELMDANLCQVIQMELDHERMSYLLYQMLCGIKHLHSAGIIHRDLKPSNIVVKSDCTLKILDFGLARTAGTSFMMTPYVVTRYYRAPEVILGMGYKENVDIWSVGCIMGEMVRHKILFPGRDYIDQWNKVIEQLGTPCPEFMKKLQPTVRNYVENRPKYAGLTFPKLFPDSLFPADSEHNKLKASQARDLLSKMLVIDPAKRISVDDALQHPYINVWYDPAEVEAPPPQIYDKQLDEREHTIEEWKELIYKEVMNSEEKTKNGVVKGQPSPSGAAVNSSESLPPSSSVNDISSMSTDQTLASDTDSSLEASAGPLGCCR
Method: as §1
as §2, with “JNK3” for “ALK4”, “50” for “8”, “Tris” for “MOPS”, “7.5, 0.1” for “7.0, 0.2”, “EGTA, 0.1% R-mercaptoethanol, 250 μM peptide,” for “EDTA, 2 mg/ml casein,”

MAPK2(h) = MAPK2(h) (Homo sapiens, UniProt P28482); conditions: read-out: percent residual activity of MAPK2(h)
Sequence of MAPK2(h) (P28482 whole entry): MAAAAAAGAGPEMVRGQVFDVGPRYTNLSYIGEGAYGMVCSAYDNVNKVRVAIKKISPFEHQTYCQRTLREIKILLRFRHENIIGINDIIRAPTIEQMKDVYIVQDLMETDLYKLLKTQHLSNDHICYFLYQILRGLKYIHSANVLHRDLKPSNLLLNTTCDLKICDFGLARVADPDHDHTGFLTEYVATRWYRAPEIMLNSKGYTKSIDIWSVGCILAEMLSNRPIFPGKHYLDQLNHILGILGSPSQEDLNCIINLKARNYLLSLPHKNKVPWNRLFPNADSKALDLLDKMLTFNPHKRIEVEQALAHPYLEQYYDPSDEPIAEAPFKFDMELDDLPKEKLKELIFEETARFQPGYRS
Method: as §1
In a final reaction volume of 25 μl, MAPK2 (h) (5-10 mU) is incubated with 25 mM Tris pH 7.5, 0.02 mM EGTA, 0.33 mg/ml myelin basic protein, 10 mM MgAcetate and [gamma-33P-ATP] (specific activity approx. 500 cpm/pmol, concentration as required). The reaction is initiated by the addition of the MgATP mix. After incubation for 40 minutes at room temperature, the reaction is stopped by the addition of […] of a 3% phosphoric acid solution. 10 μl of the reaction is then spotted onto a P30 filtermat and washed three times for 5 minutes in 75 mM phosphoric acid and once in methanol prior to drying and scintillation counting.

PAK6(h) = PAK6(h) (Homo sapiens, UniProt Q9NQU5); conditions: read-out: percent residual activity of PAK6(h)
Sequence of PAK6(h) (Q9NQU5 whole entry): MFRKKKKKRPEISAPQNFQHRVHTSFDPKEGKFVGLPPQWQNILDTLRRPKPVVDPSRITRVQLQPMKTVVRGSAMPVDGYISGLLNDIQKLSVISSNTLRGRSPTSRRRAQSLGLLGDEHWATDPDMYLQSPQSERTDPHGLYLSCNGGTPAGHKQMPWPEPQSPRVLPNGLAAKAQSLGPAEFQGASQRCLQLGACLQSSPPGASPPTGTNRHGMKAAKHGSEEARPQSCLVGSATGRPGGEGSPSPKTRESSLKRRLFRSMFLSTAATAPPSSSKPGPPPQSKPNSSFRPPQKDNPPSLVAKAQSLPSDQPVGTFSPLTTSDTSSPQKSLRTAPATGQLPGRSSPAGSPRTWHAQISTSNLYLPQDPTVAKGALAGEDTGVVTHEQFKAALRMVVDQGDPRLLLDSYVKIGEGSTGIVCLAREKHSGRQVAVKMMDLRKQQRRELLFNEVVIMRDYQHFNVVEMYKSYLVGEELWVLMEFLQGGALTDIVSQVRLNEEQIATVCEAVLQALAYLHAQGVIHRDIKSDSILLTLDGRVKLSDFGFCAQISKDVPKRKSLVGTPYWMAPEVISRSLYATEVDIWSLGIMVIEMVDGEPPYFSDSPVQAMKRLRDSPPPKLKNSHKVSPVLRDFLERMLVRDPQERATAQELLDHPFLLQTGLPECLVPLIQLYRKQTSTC
Method: as §1
as §2, with “PAK6” for “ALK4”, “200 μM RRRLSFAEPG (SEQ ID NO:223),” for “2 mg/ml casein,”, “[y-33P-ATP]” for “[gamma-33P-ATP]”

PKCα(h) = PKCα(h) (Homo sapiens, UniProt P17252); conditions: read-out: percent residual activity of PKCα(h)
Method: as §1
In a final reaction volume of 25 μl, PKCα (h) (5-10 mU) is incubated with 20 mM HEPES pH 7.4, 0.03% Triton X-100, […], 0.1 mg/ml phosphatidylserine, 10 μg/ml diacylglycerol, 0.1 mg/ml histone H1, 10 mM MgAcetate and [gamma-33P-ATP] (specific activity approx. 500 cpm/pmol, concentration as required). The reaction is initiated by the addition of the MgATP mix. After incubation for 40 minutes at room temperature, the reaction is stopped by the addition of 5 μl of a 3% phosphoric acid solution. […]

ROCK-I(h) = ROCK-I(h) (Homo sapiens, UniProt Q13464); conditions: read-out: percent residual activity of ROCK-I(h)
Sequence of ROCK-I(h) (Q13464 whole entry): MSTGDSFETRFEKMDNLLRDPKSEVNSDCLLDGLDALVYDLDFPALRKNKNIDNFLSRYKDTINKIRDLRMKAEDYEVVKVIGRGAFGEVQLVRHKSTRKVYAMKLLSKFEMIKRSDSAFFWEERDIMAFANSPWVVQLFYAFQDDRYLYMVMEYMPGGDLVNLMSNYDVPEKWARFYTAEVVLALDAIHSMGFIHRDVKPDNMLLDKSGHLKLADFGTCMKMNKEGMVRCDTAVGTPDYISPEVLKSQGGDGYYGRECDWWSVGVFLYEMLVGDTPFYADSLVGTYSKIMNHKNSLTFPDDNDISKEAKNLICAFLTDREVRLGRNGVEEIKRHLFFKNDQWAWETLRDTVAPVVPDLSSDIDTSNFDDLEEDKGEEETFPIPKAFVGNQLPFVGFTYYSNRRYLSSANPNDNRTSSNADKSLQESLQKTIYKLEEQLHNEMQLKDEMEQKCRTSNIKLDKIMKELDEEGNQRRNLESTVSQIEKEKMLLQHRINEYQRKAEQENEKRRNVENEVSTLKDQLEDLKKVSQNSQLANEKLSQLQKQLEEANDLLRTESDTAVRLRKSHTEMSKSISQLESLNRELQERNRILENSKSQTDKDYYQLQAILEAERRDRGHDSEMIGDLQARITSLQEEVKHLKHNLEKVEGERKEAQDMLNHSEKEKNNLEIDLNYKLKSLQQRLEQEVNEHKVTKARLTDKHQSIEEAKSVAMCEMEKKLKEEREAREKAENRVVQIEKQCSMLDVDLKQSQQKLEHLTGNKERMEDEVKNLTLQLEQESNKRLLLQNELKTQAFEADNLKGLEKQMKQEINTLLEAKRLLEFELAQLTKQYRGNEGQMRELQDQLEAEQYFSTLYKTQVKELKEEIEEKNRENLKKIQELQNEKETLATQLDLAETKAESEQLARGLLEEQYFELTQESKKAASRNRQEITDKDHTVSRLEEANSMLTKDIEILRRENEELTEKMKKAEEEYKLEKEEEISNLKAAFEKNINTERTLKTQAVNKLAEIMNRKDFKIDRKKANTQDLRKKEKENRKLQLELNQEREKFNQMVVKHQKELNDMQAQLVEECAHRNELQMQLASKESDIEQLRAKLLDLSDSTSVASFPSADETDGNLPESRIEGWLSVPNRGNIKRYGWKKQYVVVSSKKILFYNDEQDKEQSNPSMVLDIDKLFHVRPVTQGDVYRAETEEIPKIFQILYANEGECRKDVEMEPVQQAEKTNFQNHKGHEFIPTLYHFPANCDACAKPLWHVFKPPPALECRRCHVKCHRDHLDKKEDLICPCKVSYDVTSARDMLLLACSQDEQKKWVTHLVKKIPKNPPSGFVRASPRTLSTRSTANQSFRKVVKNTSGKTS
Method: as §1
as §2, with “ROCK-I” for “ALK4”, “30 μM […] (SEQ ID NO:222),” for “2 mg/ml casein,”

Snk(h) = Snk(h) (Homo sapiens, UniProt Q9NYY3); conditions: read-out: percent residual activity of Snk(h)
Sequence of Snk(h) (Q9NYY3 whole entry): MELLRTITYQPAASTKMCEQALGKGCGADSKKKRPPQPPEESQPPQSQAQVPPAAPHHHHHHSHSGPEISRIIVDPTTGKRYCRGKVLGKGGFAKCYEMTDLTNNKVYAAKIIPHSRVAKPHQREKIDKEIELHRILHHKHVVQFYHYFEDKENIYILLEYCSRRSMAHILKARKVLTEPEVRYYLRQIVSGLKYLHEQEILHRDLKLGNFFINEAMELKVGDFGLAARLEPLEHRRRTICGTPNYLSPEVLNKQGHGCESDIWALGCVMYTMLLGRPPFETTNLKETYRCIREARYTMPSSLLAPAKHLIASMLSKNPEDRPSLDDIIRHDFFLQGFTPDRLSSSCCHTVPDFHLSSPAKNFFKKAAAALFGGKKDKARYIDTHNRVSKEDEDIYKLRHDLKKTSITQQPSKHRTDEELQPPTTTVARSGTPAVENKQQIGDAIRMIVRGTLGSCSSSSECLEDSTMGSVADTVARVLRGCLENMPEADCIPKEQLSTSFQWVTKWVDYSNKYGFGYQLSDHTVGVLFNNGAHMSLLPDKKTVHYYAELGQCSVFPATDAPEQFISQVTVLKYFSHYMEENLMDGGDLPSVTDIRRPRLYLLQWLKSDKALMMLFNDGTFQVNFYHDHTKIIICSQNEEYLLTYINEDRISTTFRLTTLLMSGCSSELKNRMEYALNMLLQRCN
Method: as §1
as §2, with “Snk” for “ALK4”

Sequence of ALK4(h) (P36896 24-505): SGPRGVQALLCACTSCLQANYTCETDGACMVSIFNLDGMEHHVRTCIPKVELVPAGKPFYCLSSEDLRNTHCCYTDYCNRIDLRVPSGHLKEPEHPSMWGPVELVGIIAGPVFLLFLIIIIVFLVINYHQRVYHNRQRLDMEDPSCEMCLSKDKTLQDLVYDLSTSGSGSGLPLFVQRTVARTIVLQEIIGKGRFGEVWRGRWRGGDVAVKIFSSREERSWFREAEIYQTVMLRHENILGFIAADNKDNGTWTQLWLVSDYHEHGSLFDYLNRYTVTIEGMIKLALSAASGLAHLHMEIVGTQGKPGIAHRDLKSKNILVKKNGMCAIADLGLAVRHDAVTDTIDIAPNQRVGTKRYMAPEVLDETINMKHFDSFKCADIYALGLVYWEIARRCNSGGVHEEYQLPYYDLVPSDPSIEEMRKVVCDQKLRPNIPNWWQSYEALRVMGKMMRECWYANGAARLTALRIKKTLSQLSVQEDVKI

remaining activity at 2.5 µM (ALK4(h)) [%]	remaining activity at 2.5 µM (JNK3(h)) [%]	remaining activity at 2.5 µM (MAPK2(h)) [%]	remaining activity at 2.5 µM (PAK6(h)) [%]	remaining activity at 2.5 µM (PKCα(h)) [%]	remaining activity at 2.5 µM (ROCK-I(h)) [%]	remaining activity at 2.5 µM (Snk(h)) [%]	SMILES
108	97	101	123	90	91	125	CN1CCCC1CCNC(=O)c1cn2c3c(c(N4CCC(c5cnccn5)C4)c(F)cc3c1=O)Oc1cc3ccccc3cc1-2 (centres unmarked) [Compound A-1]
103	98	108	112	101	101	125	CC(=O)N1CCN(c2ccc3c(=O)c(C(=O)NCCN4CCCC4)c4n(C)c5ccccc5n4c3n2)CC1 [Compound B-1]
